We go through two compounds from EP4659750A1, “PHARMACEUTICAL COMPOSITION CONTAINING ß-LACTAMASE INHIBITOR AND USE THEREOF” (Evopoint Biosciences Co., Ltd., priority 2023, dated 2024).

≈ marks a conversion by molar mass, not a printed value. Where two headings read alike, the source gives them in different places.

The subject of series [1] is Pseudomonas aeruginosa ACC00680. The series is described as follows: Neutropenic mouse thigh infection model, Example 1 (imipenem and Compound 1). The note with it: doses at 1,3,5,7 h, thighs 9 h after inoculation. It is filed as in vivo. The method, then: (§1) In the following examples, the tests are conducted following the steps below. • (1) Immunization of mice: All mice are injected intraperitoneally with 150 mg/kg cyclophosphamide 4 days before inoculation and 100 mg/kg cyclophosphamide 1 day before inoculation to reduce their neutrophils by immunosuppression. […] The mice are inoculated approximately 24 hours after the second administration of the immunosuppressant. • (2) Bacterial culture: All bacterial strains used for inoculation are prepared from overnight broth cultures. In brief, each strain is allowed to grow in cation-adjusted MuellerHinton broth in a shaking incubator (300 RPM) at 37°C. The overnight cultures are washed twice with phosphate buffer solution (PBS) and adjusted to the optimal concentration in PBS.
(§2) For intravenous (IV) administration, the solution of Compound 1 is prepared using a Captisol vehicle, which is 25 mM acetate buffer (prepared with sodium acetate trihydrate) containing 10% w/v Captisol. The pH is adjusted to 5.0 with 2N acetic acid solution. A desired volume of buffer is added to the weighed sample, the desired concentration of Compound 1 is prepared in the buffer, which is then ultrasonically heated in a water bath until a clear solution was obtained. The administrated volume of Compound 1 is 5 mL/kg.
(§3) For subcutaneous (SC) administration, an imipenem solution or imipenem-cilastatin solution is prepared in sterile PBS by using imipenem monohydrate or imipenem monohydrate and cilastatin sodium. The desired concentration of imipenem is prepared by adding PBS to the solid powder, then sonicating the mixture in a water bath until a clear solution is obtained, and the administrated volume is 10 mL/kg.
The mice were divided into 15 groups, with 5 mice in each group. The test was carried out following the above steps, the concentration of the bacterial solution of Pseudomonas aeruginosa ACC00680 was 1.83×10^5 colony forming unit (CFU) per gram of thigh tissues, and the administration was conducted according to the scheme in the table below.
For Groups 2 to 15 above, animals were euthanized 9 hours after inoculation using an overdose of sodium pentobarbital, followed by confirmation of death by cervical dislocation. The thighs were dissected and weighed, then homogenized in an ice-cold sterile phosphate buffer using a Precellys microsphere homogenizer; and the homogenate was quantitatively cultured on drug-free agar (CLED or PSA) and incubated for 18-24 h at 37°C, followed by colony counting.
(§4) For the […] Group 1 (control group) above, animals were euthanized with an overdose of sodium pentobarbital 1 hour after inoculation. As described above, bilateral thighs were dissected and quantitatively cultured for use as final samples.

For series [2] the test system is unchanged. The series is described as follows: Neutropenic mouse thigh infection model, Example 2 (imipenem, cilastatin and Compound 1). The note with it: Compound 1 96 mg/kg total IV; doses at 1,3,5,7 h; thighs 9 h after inoculation. It is filed as in vivo. The method, then: as §1, with “The overnight cultures are washed twice with phosphate buffer solution (PBS) and adjusted to the optimal concentration in PBS.” left out
(§5) For Groups 2 to 16 above, animals were euthanized 9 hours after inoculation using an overdose of sodium pentobarbital, followed by confirmation of death by cervical dislocation. The thighs were dissected and weighed, then homogenized in an ice-cold sterile phosphate buffer using a Precellys microsphere homogenizer; and the homogenate was quantitatively cultured on drug-free agar (CLED or PSA) and incubated for 18-24 h at 37°C, followed by colony counting.
as §4

In series [3] the test system is Acinetobacter baumannii AR0274. Briefly: Neutropenic mouse thigh infection model, Example 3. The class given is in vivo. The note with it: doses at 1,3,5,7 h, thighs 9 h after inoculation. How it is done:
as §1, §2, §3
The mice were divided into 16 groups, with 5 mice in each group. The test was carried out following the above experimental steps, the inoculation amount of Acinetobacter baumannii AR0274 was 1.8×10^6 CFU per gram of thigh tissue, and the administration was conducted according to the scheme in the table below.
as §5, §4

The subject of series [4] is Klebsiella pneumoniae ARo113. Briefly: Neutropenic mouse thigh infection model, Example 4. It is filed as in vivo. The conditions noted are these: doses at 1,3,5,7 h, thighs 9 h after inoculation. How it is done: as §1, §2, §3
The mice were divided into 16 groups, with 5 mice in each group. The test was carried out following the above steps, the concentration of the bacterial solution of Klebsiella pneumoniae ARo113 was 4.0x10^6 CFU per gram of thigh tissues, and the administration was conducted according to the scheme in the table below.
For Groups 2 to 16 above, animals were euthanized 9 hours after inoculation using an overdose of sodium pentobarbital, followed by confirmation of death by cervical dislocation. The thighs were dissected and weighed, then homogenized in an ice-cold sterile phosphate buffer using a Precellys microsphere homogenizer; and the homogenate was quantitatively cultured on drug-free agar (CLED or PSA) and incubated for 12-16 h at 30°C, followed by colony counting.
as §4

Series [5] can be described thus: Solubility of Compound 1 (HPLC), selection of solubilizer type. The class given is physicochemical. The note with it: for solubility at 24 h: read-out: Concentration. How it is done:
The solubilization effect of sodium sulfobutylether-β-cyclodextrin (SBECD) and hydroxypropyl-β-cyclodextrin (HP-β-CD) on Compound 1 was investigated by taking the solubility in 50 mM pH 4.5 acetate buffer medium and water as a reference. […] Table Solubility of Compound 1 incubated for 24 h at 25°C
In the art, surfactants may also be used for solubilization. To further improve the solubility of Compound 1, a surfactant was added on the basis of SBECD to investigate the solubility. […] Table Solubility of Compound 1 incubated for 24 h at 25°C

Series [6] has as its system OXA β-lactamases. The series is described as follows: In vitro inhibition of OXA β-lactamases. It is filed as biochemical, Acinetobacter baumannii. The conditions noted are these: in vitro (background statement).
In series [7] the test system is Pseudomonas aeruginosa. The series is described as follows: Mice neutropenic thigh infection model, human-simulated dosing regimen, Example 5. It is filed as in vivo. The note with it: monotherapy, human-simulated imipenem dosing regimen (500 mg, q6h, infused for 60 minutes); four strains; 24 h.
The subject of series [8] is Acinetobacter baumannii. The description is as above. The conditions noted are these: monotherapy, human-simulated imipenem dosing regimen (500 mg, q6h, infused for 60 minutes); seven strains; 24 h. It is filed as in vivo.
Series [9] has as its system Klebsiella pneumoniae. The series is described as above. The note with it: monotherapy, human-simulated imipenem dosing regimen (500 mg, q6h, infused for 60 minutes); four strains. It is filed as in vivo.
Protocol: A total of 15 bacterial strains (4 strains of Pseudomonas aeruginosa, 4 strains of Klebsiella pneumoniae and 7 strains of Acinetobacter baumannii, see the table below) were selected for dose study of Compound 1 in the mice neutropenic thigh infection model. In terms of administrated dose, imipenem was administered with a human-simulated dosing regimen (500 mg, q6h, infused for 60 minutes),and also combined with different doses of Compound 1.
At 0 h, the mean bacterial load in the thighs of mice was 5.92 ± 0.14 log10 CFU/thigh.

On to `N=C1NC[C@@H](c2nnc([C@@H]3CC4(CC4)[C@@H]4CN3C(=O)N4OS(=O)(=O)O)o2)N1` [Compound 1], for which the “Change in Pre-Tx Log10 load” value in [1] (Compound 1 50 mg/kg total IV) worked out at 0.36 log10 CFU/g; in [1] (Compound 1 75 mg/kg total IV), 0.98 log10 CFU/g; in series [1] (Compound 1 100 mg/kg total IV) it was 1.35 log10 CFU/g. Moreover, the “Log10 group geometric mean (CFU/g)” value in series [1] (Compound 1 50 mg/kg total IV) was found to be 5.67 log10 CFU/g; in series [1] (Compound 1 75 mg/kg total IV) it was 6.29 log10 CFU/g; in series [1] (Compound 1 100 mg/kg total IV), 6.65 log10 CFU/g; in series [2], 7.51 log10 CFU/g; in series [3] (Compound 1 96 mg/kg total IV), 7.28 log10 CFU/g; in series [4] (Compound 1 96 mg/kg total) it was 7.31 log10 CFU/g. Moreover, the “Change in Pre-Tx Log10 loading (CFU/g)” value worked out at 2.45 log10 CFU/g in [2], 1.53 log10 CFU/g in series [3] (Compound 1 96 mg/kg total IV) and 1.11 log10 CFU/g in series [4] (Compound 1 96 mg/kg total). For the same compound, the solubility at 24 h in series [5] (50 mm acetate buffer, pH 4.5, aqueous buffer, solubility in 50 mM acetate buffer (pH 4.5) (control), 24 h at 25°C) was 3850 µg/mL (≈ 9.64 mM); in series [5] (aqueous hp-β-cd 10%, solubility in aqueous HP-β-CD 10%, 24 h at 25°C), 5000 µg/mL (≈ 12.5 mM); in series [5] (aqueous hp-β-cd 20%, solubility in aqueous HP-β-CD 20%, 24 h at 25°C) it was 6400 µg/mL (≈ 16 mM); in series [5] (aqueous hp-β-cd 30%, solubility in aqueous HP-β-CD 30%, 24 h at 25°C) it was 7720 µg/mL (≈ 19.3 mM); in [5] (aqueous sbecd 10%, peg 400, organic solvent or mixture, solubility in aqueous SBECD 10% and PEG 400 5%, 24 h at 25°C) it was 6210 µg/mL (≈ 15.5 mM); in series [5] (aqueous sbecd 10%, peg 400, organic solvent or mixture, solubility in aqueous SBECD 10% and PEG 400 20%, 24 h at 25°C), 6350 µg/mL (≈ 15.9 mM). For the same compound, the solubility at 24 h in series [5] (aqueous sbecd 10%, peg 400, organic solvent or mixture, solubility in aqueous SBECD 10% and PEG 400 40%, 24 h at 25°C) is 6840 µg/mL (≈ 17.1 mM); in series [5] (aqueous sbecd 10%, pvp k12, solubility in aqueous SBECD 10% and PVP K12 0.5%, 24 h at 25°C), 6440 µg/mL (≈ 16.1 mM); in [5] (aqueous sbecd 10%, pvp k12, solubility in aqueous SBECD 10% and PVP K12 1%, 24 h at 25°C) it was 6420 µg/mL (≈ 16.1 mM); in series [5] (aqueous sbecd 10%, pvp k12, solubility in aqueous SBECD 10% and PVP K12 2.5%, 24 h at 25°C), 6380 µg/mL (≈ 16 mM); in series [5] (aqueous sbecd 10%, solubility in aqueous SBECD 10%, 24 h at 25°C), 5960 µg/mL (≈ 14.9 mM); in series [5] (aqueous sbecd 20%, solubility in aqueous SBECD 20%, 24 h at 25°C), 8460 µg/mL (≈ 21.2 mM). In addition, the solubility at 24 h in [5] (aqueous sbecd 30%, solubility in aqueous SBECD 30%, 24 h at 25°C) turned out to be 10500 µg/mL (≈ 26.3 mM); in [5] (aqueous sbecd, poloxamer 188, solubility in aqueous SBECD 10% and Poloxamer 188 1%, 24 h at 25°C), 6750 µg/mL (≈ 16.9 mM); in [5] (aqueous sbecd, pvp, poloxamer 188, solubility in aqueous SBECD 10%, PVP K12 0.5% and Poloxamer 188 1%, 24 h at 25°C) it was 6950 µg/mL (≈ 17.4 mM); in series [5] (aqueous sbecd, pvp, solutol hs15, solubility in aqueous SBECD 10%, PVP K12 0.5% and Solutol HS15 1%, 24 h at 25°C), 6870 µg/mL (≈ 17.2 mM); in series [5] (aqueous sbecd, pvp, tween 80, solubility in aqueous SBECD 10%, PVP K12 0.5% and Tween 80 1%, 24 h at 25°C) it was 6990 µg/mL (≈ 17.5 mM); in [5] (aqueous sbecd, solutol hs15, solubility in aqueous SBECD 10% and Solutol HS15 1%, 24 h at 25°C), 6680 µg/mL (≈ 16.7 mM). Further, the solubility at 24 h in series [5] (aqueous sbecd, tween 80, solubility in aqueous SBECD 10% and Tween 80 1%, 24 h at 25°C) came to 6920 µg/mL (≈ 17.3 mM); in series [5] (water, solubility in water (control), incubated 24 h at 25°C), 600 µg/mL (≈ 1.5 mM). Also, the “Concentration” value in series [5] (solubility in aqueous SBECD 10%, 24 h at 25°C) amounted to 5960 µg/mL; in series [5] (solubility in water (control), incubated 24 h at 25°C), 600 µg/mL. The “inhibition of OXA β-lactamases” value in series [6] is “effectively inhibit”.

For `C[C@@H](O)[C@H]1C(=O)N2C(C(=O)O)=C(SCCN=CN)C[C@H]12` [Imipenem, imipenem monohydrate], the “Change in Pre-Tx Log10 load” value in series [1] (Imipenem 100 mg/kg total SC) was determined as 0.73 log10 CFU/g. Further, the “Group geometric mean (CFU/g)” value in [1] (Imipenem 100 mg/kg total SC) is given as 1.08×10^6 CFU/g; in [3] (Imipenem 96 mg/kg total SC) it was 3.91×10^7 CFU/g; in [4] (Imipenem 96 mg/kg total SC), 1.34×10^7 CFU/g. Besides, the entries for the “Log10 group geometric mean (CFU/g)” value in series [1] (Imipenem 100 mg/kg total SC), in series [3] (Imipenem 96 mg/kg total SC) and in series [4] (Imipenem 96 mg/kg total SC) were 6.03 log10 CFU/g, 7.59 log10 CFU/g and 7.13 log10 CFU/g, respectively. The “Change in Pre-Tx Log10 loading (CFU/g)” value amounted to 1.85 log10 CFU/g in [3] (Imipenem 96 mg/kg total SC) and 0.93 log10 CFU/g in series [4] (Imipenem 96 mg/kg total SC). Also, the “mean increase in bacterial load” value is on record as 2.64 ± 1.18 log10 CFU/thigh in series [7], 2.16 ± 0.74 log10 CFU/thigh in series [8] and 2.83 ± 0.81 log10 CFU/thigh in series [9].
